target: JAK3 JH1 kinase (Homo sapiens, UniProt P52333); assay: JAK3 JH1 enzyme assay in vitro (TR-FRET); assay type: biochemical; conditions: TR-FRET; read-out: JAK 3 JH1 IC50
Sequence (P52333 822-1111 limits assumed): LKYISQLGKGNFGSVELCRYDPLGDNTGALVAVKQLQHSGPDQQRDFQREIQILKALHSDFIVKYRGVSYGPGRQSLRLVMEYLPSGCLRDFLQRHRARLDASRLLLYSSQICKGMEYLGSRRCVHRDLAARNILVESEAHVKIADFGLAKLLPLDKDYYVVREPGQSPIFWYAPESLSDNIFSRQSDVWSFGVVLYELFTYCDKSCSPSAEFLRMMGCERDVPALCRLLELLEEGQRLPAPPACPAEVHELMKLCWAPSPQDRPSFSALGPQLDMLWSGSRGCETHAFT

Row | Structure (SMILES) | IC50
1 | [2H]C([2H])([2H])NC(=O)c1cnc(NC(=O)C2CC2)cc1Nc1cccc(C(=O)Nc2cncc(C)c2)c1OC [Example 91] | > 10000 nM
2 | [2H]C([2H])([2H])NC(=O)c1nnc(NC(=O)C2CC2)cc1Nc1cccc(C(=O)Nc2ccc(F)cc2)c1OC [Example 5] | > 10000 nM
3 | [2H]C([2H])([2H])NC(=O)c1cnc(NC(=O)C2CC2)cc1Nc1cccc(C(=O)Nc2ccc(C)c(C)c2)c1OC [Example 62] | > 10000 nM
4 | [2H]C([2H])([2H])NC(=O)c1nnc(NC(=O)C2CC2)cc1Nc1cccc(C(=O)Nc2ccc(C)cc2)c1OC [Example 2] | > 10000 nM

target: T1, hERG channel (Homo sapiens, UniProt Q12809); assay: hERG potassium channel inhibition assay (manual patch clamp); assay type: cell-based; conditions: HEK-293 cell line stably expressing hERG channel, at the tested concentrations
T1 construct: expressed in transfected cells; host or cells: HEK-293
T1 sequence (Q12809 whole entry): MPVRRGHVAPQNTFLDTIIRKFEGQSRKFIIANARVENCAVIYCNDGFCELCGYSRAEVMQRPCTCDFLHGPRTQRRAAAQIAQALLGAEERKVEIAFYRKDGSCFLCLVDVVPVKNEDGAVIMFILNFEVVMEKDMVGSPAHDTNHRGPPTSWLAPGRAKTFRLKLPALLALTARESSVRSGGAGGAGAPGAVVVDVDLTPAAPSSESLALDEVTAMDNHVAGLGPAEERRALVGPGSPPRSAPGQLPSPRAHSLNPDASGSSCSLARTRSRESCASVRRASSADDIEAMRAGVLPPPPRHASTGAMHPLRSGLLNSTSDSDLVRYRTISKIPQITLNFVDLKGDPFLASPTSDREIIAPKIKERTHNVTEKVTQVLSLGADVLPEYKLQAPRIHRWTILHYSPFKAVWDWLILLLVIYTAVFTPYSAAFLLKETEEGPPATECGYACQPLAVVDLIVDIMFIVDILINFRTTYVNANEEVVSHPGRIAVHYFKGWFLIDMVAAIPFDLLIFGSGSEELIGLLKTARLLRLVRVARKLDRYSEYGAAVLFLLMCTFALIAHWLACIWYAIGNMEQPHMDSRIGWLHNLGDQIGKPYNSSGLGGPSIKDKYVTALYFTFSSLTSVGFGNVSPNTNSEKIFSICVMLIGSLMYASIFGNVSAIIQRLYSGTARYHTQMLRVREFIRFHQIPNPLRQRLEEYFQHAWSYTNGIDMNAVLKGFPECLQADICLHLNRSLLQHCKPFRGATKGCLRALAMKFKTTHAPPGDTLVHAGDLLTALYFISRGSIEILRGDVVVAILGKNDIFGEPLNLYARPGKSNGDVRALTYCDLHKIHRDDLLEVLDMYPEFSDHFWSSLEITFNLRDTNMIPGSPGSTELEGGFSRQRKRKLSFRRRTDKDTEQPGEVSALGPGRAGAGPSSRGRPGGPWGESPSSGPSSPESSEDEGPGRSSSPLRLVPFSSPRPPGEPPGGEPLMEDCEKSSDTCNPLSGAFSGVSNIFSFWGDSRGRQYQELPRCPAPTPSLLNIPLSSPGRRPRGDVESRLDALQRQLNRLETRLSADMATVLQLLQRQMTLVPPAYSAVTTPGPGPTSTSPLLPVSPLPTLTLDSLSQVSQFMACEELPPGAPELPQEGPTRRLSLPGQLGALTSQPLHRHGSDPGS
Experimental: Instrumentation: HEKA EPC 10 patch clamp amplifier.
Method: in this experiment, the blocking effect of the compounds on the current of the HEK-293 cell line stably expressing hERG channel was measured using the manual patch clamp technique, and the risk of the compounds on the inhibition of cardiac hERG potassium channel was assessed by fitting the concentration effect relationship.
Procedure: in the patch clamp operation, firstly, a capillary glass tube was pulled into a recording electrode using a microelectrode puller, then an electrode filled with intracellular solution was mounted into a microelectrode holder. A microelectrode manipulator was operated under an inverted microscope to immerse the electrode into an extracellular solution and the electrode resistance (Rpip) was recorded. Then, the electrode was slowly brought into contact with the cell surface, and a negative pressure was applied for suction to form a GΩ seal. At this point, a fast capacitance compensation was performed, and a negative pressure was continuously applied to suck and break the cell membrane to form a whole cell recording mode. Finally, a slow capacitance compensation was performed and experimental parameters including series resistance (Rs) and the like were recorded. No leakage compensation was performed. When the hERG current recorded by the whole cell was stable, the administration of drugs commenced, and each drug concentration acted for about 5 min (or until the current stabilization) before detecting the next concentration. A cover glass covered with cells was placed in a recording bath under an inverted microscope, the blank control extracellular solution and the working solution of the compounds to be tested sequentially flowed through the recording bath from low concentration to high concentration by using gravity perfusion to act on the cells, and solution exchange was performed using a peristaltic pump during recording. The current measured by each cell in the extracellular solution without the compound served as its own control group. Each concentration was independently assessed twice. All electrophysiological tests were performed at room temperature.
Data Analysis: firstly, the tail current (Peak tail currentcompound) after the action of each drug concentration and the blank control tail current (Peak tail currentcontrol) were normalized, then the inhibition rate
corresponding to each drug concentration was calculated, and the mean (Mean), standard deviation (SD) and standard error (SE) of the inhibition rate corresponding to each concentration were calculated, with data expressed as Mean±SE. The calculation of IC50 value and the fitting of dose-response curve for the compound were performed using GraphPad Prism software.

Row | Structure (SMILES) | hERG inhibition
5 | [2H]C([2H])([2H])NC(=O)c1cnc(NC(=O)C2CC2)cc1Nc1cccc(C(=O)Nc2cncc(C)c2)c1OC [Example 91] | no significant inhibition
6 | [2H]C([2H])([2H])NC(=O)c1nnc(NC(=O)C2CC2)cc1Nc1cccc(C(=O)Nc2ccc(F)cc2)c1OC [Example 5] | no significant inhibition
7 | [2H]C([2H])([2H])NC(=O)c1cnc(NC(=O)C2CC2)cc1Nc1cccc(C(=O)Nc2ccc(C)c(C)c2)c1OC [Example 62] | no significant inhibition
8 | [2H]C([2H])([2H])NC(=O)c1nnc(NC(=O)C2CC2)cc1Nc1cccc(C(=O)Nc2ccc(C)cc2)c1OC [Example 2] | no significant inhibition

target: TYK2 JH2 pseudokinase (Homo sapiens, UniProt P29597); assay: TYK2 JH2 enzyme binding assay in vitro (TR-FRET); conditions: not given
Sequence (P29597 589-875 limits assumed): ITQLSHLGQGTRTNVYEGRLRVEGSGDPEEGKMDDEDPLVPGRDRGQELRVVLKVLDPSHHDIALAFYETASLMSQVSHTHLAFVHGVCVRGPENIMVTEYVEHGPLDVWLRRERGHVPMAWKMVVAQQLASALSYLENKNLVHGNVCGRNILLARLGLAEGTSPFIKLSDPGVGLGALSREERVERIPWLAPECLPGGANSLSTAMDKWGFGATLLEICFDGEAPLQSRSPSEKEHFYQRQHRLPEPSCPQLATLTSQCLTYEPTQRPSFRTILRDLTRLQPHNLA
Experimental: Instrumentation: Envision microplate reader (PerkinElmer), ECHO550 (LABCYTE).
Method: the inhibitory effects of compounds on TYK2 JH2 pseudokinase was tested using time-resolved fluorescence resonance energy transfer (TR-FRET) method.
Procedure: compounds were prepared into 10 mM stock solutions using DMSO, which were further diluted into compound dilutions (200×) with different concentration gradients in DMSO, and the compound dilutions (200×) were transferred to a 384-well assay plate using an Echo instrument. […] TYK2 JH2 pseudokinase, Tb antibody, and Tracer working solutions were prepared using the dilution buffer, respectively. 5 uL of TYK2 JH2 pseudokinase working solution (final concentration 0.5 nM) was added to a 384-well assay plate, and centrifuged at 1000 rpm for 30 s. 5 uL of Tb antibody (final concentration 1×) was added to the 384-well assay plate, and centrifuged at 1000 rpm for 30 s. 5 uL of Tracer (final concentration 0.5 nM) was added to the 384-well assay plate, and centrifuged at 1000 rpm for 30 s. Incubation was performed at room temperature for 60 min, and then at 4° C. overnight.
Data Analysis: XLfit, a software developed by IDBS and integrated into the Microsoft Excel environment, was used to process and analyze the test data.

Row | Structure (SMILES) | IC50
9 | [2H]C([2H])([2H])NC(=O)c1cnc(NC(=O)C2CC2)cc1Nc1cccc(C(=O)Nc2cncc(C)c2)c1OC [Example 91] | 0.312 nM
10 | [2H]C([2H])([2H])NC(=O)c1nnc(NC(=O)C2CC2)cc1Nc1cccc(C(=O)Nc2ccc(F)cc2)c1OC [Example 5] | 0.281 nM
11 | [2H]C([2H])([2H])NC(=O)c1cnc(NC(=O)C2CC2)cc1Nc1cccc(C(=O)Nc2ccc(C)c(C)c2)c1OC [Example 62] | 0.277 nM
12 | [2H]C([2H])([2H])NC(=O)c1nnc(NC(=O)C2CC2)cc1Nc1cccc(C(=O)Nc2ccc(C)cc2)c1OC [Example 2] | 0.311 nM

target: JAK1 JH1 kinase (Homo sapiens, UniProt P23458); assay: JAK1 JH1 enzyme assay in vitro (TR-FRET); assay type: biochemical; conditions: read-out: JAK 1 JH1 IC50
Sequence (P23458 875-1153 limits assumed): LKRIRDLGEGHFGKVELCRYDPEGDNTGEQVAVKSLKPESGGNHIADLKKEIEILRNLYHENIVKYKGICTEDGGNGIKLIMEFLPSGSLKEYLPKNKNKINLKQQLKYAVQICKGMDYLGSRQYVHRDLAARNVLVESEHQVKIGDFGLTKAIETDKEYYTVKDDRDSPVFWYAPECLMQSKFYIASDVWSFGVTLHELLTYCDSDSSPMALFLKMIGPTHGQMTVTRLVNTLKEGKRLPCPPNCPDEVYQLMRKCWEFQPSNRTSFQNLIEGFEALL

Row | Structure (SMILES) | IC50
13 | [2H]C([2H])([2H])NC(=O)c1cnc(NC(=O)C2CC2)cc1Nc1cccc(C(=O)Nc2cncc(C)c2)c1OC [Example 91] | > 10000 nM
14 | [2H]C([2H])([2H])NC(=O)c1nnc(NC(=O)C2CC2)cc1Nc1cccc(C(=O)Nc2ccc(F)cc2)c1OC [Example 5] | > 10000 nM
15 | [2H]C([2H])([2H])NC(=O)c1cnc(NC(=O)C2CC2)cc1Nc1cccc(C(=O)Nc2ccc(C)c(C)c2)c1OC [Example 62] | > 10000 nM
16 | [2H]C([2H])([2H])NC(=O)c1nnc(NC(=O)C2CC2)cc1Nc1cccc(C(=O)Nc2ccc(C)cc2)c1OC [Example 2] | > 10000 nM

target: Ba/F3 cell line expressing TYK2 (Homo sapiens, UniProt P29597, cells depend on it, form not given); assay: In vitro cellular inhibition assay (Ba/F3 cell proliferation, CellTiter-Glo); assay type: cell-based; conditions: read-out: IC50 (the source's name)
Method in brief: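 Ba/F3 cells dependent on TYK2 were exposed to serially diluted compound, then viability was read by CellTiter-Glo luminescence. Inhibition (%) was calculated from RLU relative to max and min controls, and IC50 was obtained by curve fitting.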

Row | Structure (SMILES) | GI50
17 | [2H]C([2H])([2H])NC(=O)c1cnc(NC(=O)C2CC2)cc1Nc1cccc(C(=O)Nc2cncc(C)c2)c1OC [Example 91] | 1 to 5 nM
18 | [2H]C([2H])([2H])NC(=O)c1nnc(NC(=O)C2CC2)cc1Nc1cccc(C(=O)Nc2ccc(F)cc2)c1OC [Example 5] | 1 to 5 nM
19 | [2H]C([2H])([2H])NC(=O)c1cnc(NC(=O)C2CC2)cc1Nc1cccc(C(=O)Nc2ccc(C)c(C)c2)c1OC [Example 62] | 1 to 5 nM
20 | [2H]C([2H])([2H])NC(=O)c1nnc(NC(=O)C2CC2)cc1Nc1cccc(C(=O)Nc2ccc(C)cc2)c1OC [Example 2] | 1 to 5 nM
21 | [2H]C([2H])([2H])NC(=O)c1cnc(NC(=O)C2CC2)cc1Nc1cccc(C(=O)NC(C)(C)C)c1OC [Example 106] | 5 to 10 nM

tested on: imiquimod-induced mouse psoriasis-like model; assay: Imiquimod-induced mouse psoriasis-like model (PASI score); assay type: in vivo; conditions: oral gavage, 10 mg/kg, 25 mg/kg, 50 mg/kg, bid, compared with the model group

Row | Structure (SMILES) | Improvement of psoriasis symptoms by oral administration
22 | [2H]C([2H])([2H])NC(=O)c1cnc(NC(=O)C2CC2)cc1Nc1cccc(C(=O)Nc2cncc(C)c2)c1OC [Example 91] | effectively improve psoriasis symptoms
23 | [2H]C([2H])([2H])NC(=O)c1nnc(NC(=O)C2CC2)cc1Nc1cccc(C(=O)Nc2ccc(F)cc2)c1OC [Example 5] | effectively improve psoriasis symptoms
24 | [2H]C([2H])([2H])NC(=O)c1cnc(NC(=O)C2CC2)cc1Nc1cccc(C(=O)Nc2ccc(C)c(C)c2)c1OC [Example 62] | effectively improve psoriasis symptoms
25 | [2H]C([2H])([2H])NC(=O)c1nnc(NC(=O)C2CC2)cc1Nc1cccc(C(=O)Nc2ccc(C)cc2)c1OC [Example 2] | effectively improve psoriasis symptoms

target: T2, TYK2 JH1 kinase (Homo sapiens, UniProt P29597); assay: TYK2 JH1 enzyme assay in vitro (TR-FRET); assay type: biochemical; conditions: not given
T2 sequence (P29597 897-1176 limits assumed): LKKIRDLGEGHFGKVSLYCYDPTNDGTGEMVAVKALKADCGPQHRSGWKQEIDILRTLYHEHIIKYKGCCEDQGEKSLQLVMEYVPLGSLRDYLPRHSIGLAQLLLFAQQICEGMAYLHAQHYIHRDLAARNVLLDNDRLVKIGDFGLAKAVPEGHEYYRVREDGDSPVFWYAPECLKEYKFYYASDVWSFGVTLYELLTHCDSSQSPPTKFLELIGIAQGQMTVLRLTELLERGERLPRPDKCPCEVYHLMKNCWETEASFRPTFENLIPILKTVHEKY

Row | Structure (SMILES) | IC50
26 | [2H]C([2H])([2H])NC(=O)c1cnc(NC(=O)C2CC2)cc1Nc1cccc(C(=O)Nc2cncc(C)c2)c1OC [Example 91] | > 10000 nM
27 | [2H]C([2H])([2H])NC(=O)c1nnc(NC(=O)C2CC2)cc1Nc1cccc(C(=O)Nc2ccc(F)cc2)c1OC [Example 5] | > 10000 nM
28 | [2H]C([2H])([2H])NC(=O)c1cnc(NC(=O)C2CC2)cc1Nc1cccc(C(=O)Nc2ccc(C)c(C)c2)c1OC [Example 62] | > 10000 nM
29 | [2H]C([2H])([2H])NC(=O)c1nnc(NC(=O)C2CC2)cc1Nc1cccc(C(=O)Nc2ccc(C)cc2)c1OC [Example 2] | > 10000 nM

target: JAK2 JH1 kinase (Homo sapiens, UniProt O60674); assay: JAK2 JH1 enzyme assay in vitro (TR-FRET); assay type: biochemical; conditions: read-out: JAK 2 JH1 IC50
Sequence (O60674 849-1124 limits assumed): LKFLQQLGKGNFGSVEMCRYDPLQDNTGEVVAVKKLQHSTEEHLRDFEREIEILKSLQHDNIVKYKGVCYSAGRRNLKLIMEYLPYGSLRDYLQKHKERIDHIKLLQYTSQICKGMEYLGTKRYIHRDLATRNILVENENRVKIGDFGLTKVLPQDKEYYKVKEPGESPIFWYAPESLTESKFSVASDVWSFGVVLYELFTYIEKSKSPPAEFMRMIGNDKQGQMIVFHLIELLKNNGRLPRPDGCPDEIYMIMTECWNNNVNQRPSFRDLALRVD

Row | Structure (SMILES) | IC50
30 | [2H]C([2H])([2H])NC(=O)c1cnc(NC(=O)C2CC2)cc1Nc1cccc(C(=O)Nc2cncc(C)c2)c1OC [Example 91] | > 10000 nM
31 | [2H]C([2H])([2H])NC(=O)c1nnc(NC(=O)C2CC2)cc1Nc1cccc(C(=O)Nc2ccc(F)cc2)c1OC [Example 5] | > 10000 nM
32 | [2H]C([2H])([2H])NC(=O)c1cnc(NC(=O)C2CC2)cc1Nc1cccc(C(=O)Nc2ccc(C)c(C)c2)c1OC [Example 62] | > 10000 nM
33 | [2H]C([2H])([2H])NC(=O)c1nnc(NC(=O)C2CC2)cc1Nc1cccc(C(=O)Nc2ccc(C)cc2)c1OC [Example 2] | > 10000 nM

target: JAK1 JH2 pseudokinase (Homo sapiens, UniProt P23458); assay: JAK1 JH2 enzyme binding assay in vitro (TR-FRET); conditions: read-out: JAK 1 JH2 IC50
Sequence (P23458 583-855 limits assumed): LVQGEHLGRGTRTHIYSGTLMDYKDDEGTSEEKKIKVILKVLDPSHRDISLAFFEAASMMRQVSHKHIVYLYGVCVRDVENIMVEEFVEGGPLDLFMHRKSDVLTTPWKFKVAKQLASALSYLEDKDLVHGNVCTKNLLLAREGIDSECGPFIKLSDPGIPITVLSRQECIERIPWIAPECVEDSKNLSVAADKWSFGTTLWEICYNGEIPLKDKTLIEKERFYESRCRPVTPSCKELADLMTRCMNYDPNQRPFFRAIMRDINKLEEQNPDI
Experimental: Instrumentation: Envision microplate reader (PerkinElmer), Echo (LABCYTE)
Method: in this experiment, the inhibitory effects of compounds on JAK1 JH2 pseudokinase was tested using time-resolved fluorescence resonance energy transfer (TR-FRET) method.
Procedure: compounds were prepared into 10 mM stock solutions using DMSO, which were further diluted into compound dilutions with different concentration gradients in DMSO, and the compound dilutions with 200× final concentration were transferred to a 384-well assay plate using an Echo instrument. The preparation of the following 1× assay working solution: HEPES pH7.5 at a final concentration of 20 mM, MgCl2 at a final concentration of 10 mM, Brij-35 at a final concentration of 0.015%, DTT at a final concentration of 2 mM, BSA at a final concentration of 50 ug/mL. JAK1 JH2 pseudokinase with 3× final concentration, Tb antibody and Tracer were prepared using their respective 1× working solution. 5 uL of JAK1 JH2 pseudokinase was added to a 384-well assay plate, and centrifuged at 1000 rpm for 30 s. 5 uL of Tb antibody was added to the 384-well assay plate, and centrifuged at 1000 rpm for 30 s. 5 uL of Tracer was added to the 384-well assay plate, and centrifuged at 1000 rpm for 30 s. Incubation was performed at room temperature for 60 min, and then at 4° C. overnight. Finally, the 495 nm/520 nm fluorescence signal ratio was measured using the Envision microplate reader (PerkinElmer).
Data Analysis: XLfit, a software developed by IDBS and integrated into the Microsoft Excel environment, was used to process and analyze the test data. […] Thereafter, the concentration and corresponding inhibition rate data were imported into the XLfit software, and the Dose Response One Site 205 model within the software was employed to fit the inhibition rate-concentration curve by four-parameter method, and the IC50 value of the compound was calculated.

Row | Structure (SMILES) | IC50
34 | [2H]C([2H])([2H])NC(=O)c1cnc(NC(=O)C2CC2)cc1Nc1cccc(C(=O)Nc2cncc(C)c2)c1OC [Example 91] | 3.29 nM
35 | [2H]C([2H])([2H])NC(=O)c1nnc(NC(=O)C2CC2)cc1Nc1cccc(C(=O)Nc2ccc(F)cc2)c1OC [Example 5] | 6.93 nM
36 | [2H]C([2H])([2H])NC(=O)c1cnc(NC(=O)C2CC2)cc1Nc1cccc(C(=O)Nc2ccc(C)c(C)c2)c1OC [Example 62] | 14.3 nM
37 | [2H]C([2H])([2H])NC(=O)c1nnc(NC(=O)C2CC2)cc1Nc1cccc(C(=O)Nc2ccc(C)cc2)c1OC [Example 2] | 6.56 nM

Reference: patent publication US20260098017A1, “NOVEL AROMATIC RING DERIVATIVE CONTAINING AMIDE SUBSTITUTION AND USE THEREOF” (TIANJIN PHARMACEUTICAL BIOTECHNOLOGY CO., LTD., priority 2022, published 2026)
